We go through three compounds from article PMC9895061 (Signal Transduction and Targeted Therapy, 2023).

One data set has as its system recombinant PRDX1. The experiment in a line: Click labeling assay. Format: binding, human. The conditions noted are these: recombinant PRDX1, streptavidin HRP blot; competed by Celastrol. On the procedure:
The click labeling method used in this paper refers to these researches.[49],[50] Alkynylated compounds were incubated with recombinant proteins for 1 h in buffer C (20 mM Hepes, […]). For some PRDX1 wild type samples, unalkynylated compounds were pre-incubated with proteins for 0.5 h before incubating with alkynylated compounds. The work concentration of proteins is 1 µM. After compounds incubation, the protein samples were subjected to click reaction procedures through terminal alkynyl group as previously described.[49],[50] Protein samples were resolved with SDS-PAGE and blotted with streptavidin HRP (1:10000, Thermo Scientific) and anti-PRDX1 antibody (8499, 1:1000, Cell Signaling Technology).

In another data set the target is T1, PRDX1 (Homo sapiens, UniProt Q06830).
T1 sequence (Q06830 1-199): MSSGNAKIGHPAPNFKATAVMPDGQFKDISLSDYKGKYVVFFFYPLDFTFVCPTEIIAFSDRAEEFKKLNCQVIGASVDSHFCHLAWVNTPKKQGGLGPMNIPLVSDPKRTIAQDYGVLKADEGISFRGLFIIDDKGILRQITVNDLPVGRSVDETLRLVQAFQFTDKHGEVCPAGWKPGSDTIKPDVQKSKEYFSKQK
The experiment in a line: Trx-TrxR-NADPH coupling peroxiredoxin activity assay, PRDX1. The format is biochemical. The note with it: recombinant PRDX1, 1.5 h incubation, mean ± SEM, triplicate; read-out: IC50 against the peroxidase activity of PRDX1.

In the case of `C#CCOCCOCCNC(=O)[C@]1(C)CC[C@]2(C)CC[C@]3(C)C4=CC=C5C(=CC(=O)C(O)=C5C)[C@]4(C)CC[C@@]3(C)[C@@H]2C1` [alkynylated Celastrol, (2R,4aS,6aS,12bR,14aS,14bR)-10-hydroxy-2,4a,6a,9,12b,14a-hexamethyl-11-oxo-N-(2-(2-(prop-2-yn-1-yloxy)ethoxy)ethyl)-1,2,3,4,4a,5,6,6a,11,12b,13,14,14a,14b-tetradecahydropicene-2-carboxamide], the melting point fell in the range of 64.7 to 68 °C. The “covalent binding to PRDX1 by click labeling (in words)” value in the data set on recombinant PRDX1 is “covalently bound to PRDX1”.

The compound `C#CCCOC(=O)[C@@H](C)NC(=O)N[C@]1(C)CC[C@]2(C)CC[C@]3(C)C4=CC=C5C(=CC(=O)C(O)=C5C)[C@]4(C)CC[C@@]3(C)[C@@H]2C1` came in with a melting point of 123.4 to 127.8 °C.

For `COC(=O)[C@H](Cc1ccccc1)NC(=O)N[C@]1(C)CC[C@]2(C)CC[C@]3(C)C4=CC=C5C(=CC(=O)C(O)=C5C)[C@]4(C)CC[C@@]3(C)[C@@H]2C1` [19-266, Methyl (((2R,4aS,6aS,12bR,14aS,14bR)-10-hydroxy-2,4a,6a,9,12b,14a-hexamethyl-11-oxo-1,2,3,4,4a,5,6,6a,11,12b,13,14,14a,14b-tetradecahydropicen-2-yl)carbamoyl)-L-phenylalaninate], the melting point is 151.9 to 155.7 °C. Moreover, the IC50 at PRDX1 amounted to 0.28 ± 0.04 µM.
